Results reported in US9969694B2, “N-(arylalkyl)-N′-pyrazolyl-urea, thiourea, guanidine and cyanoguanidine compounds as TrkA kinase inhibitors” (Array BioPharma Inc., priority 2012, dated 2018).

Target: T1, His-tagged recombinant human TrkA (Homo sapiens, UniProt P04629)
T1 construct: 6HIS tagged cytoplasmic domain from Invitrogen, Catalog No. PV3144; purchased Invitrogen PV3144
Experiment: TrkA Kinase Binding Assay (LanthaScreen Eu)
Conditions: averaged IC50; TR-FRET binding, 60 min, 22° C.; read-out: TrkA Enzyme IC50
Experimental: TrkA binding activity was determined in a TrkA LanthaScreen™ Eu Kinase Binding Assay. 5 nM His-tagged recombinant human TrkA (6HIS tagged cytoplasmic domain from Invitrogen, Catalog No. PV3144) was incubated with 4 nM Alexa-Fluor® Tracer 236 (Invitrogen Cat. No. PV5592), 2 nM biotinylated anti-His (Invitrogen Cat. No. PV6090), and 2 nM europium-labeled Streptavidin (Invitrogen Cat. No. PV5899), in buffer (25 mM MOPS, pH 7.5, 5 mM MgCl2, 0.005% Triton X-100). Three fold serial dilutions of compounds of the invention in DMSO were added to a final percentage of 2% DMSO. After 60-minute incubation at 22° C., the reaction was measured using the EnVision mutlimode plate reader (PerkinElmer) via TR-FRET dual wavelength detection at […]. The percent of control was calculated using a ratiometric emission factor. The IC50 values were determined by fitting a four parameter model to the percent of control data.
Table A provides averaged IC50 values for compounds of the invention when tested in the assay of Example A, where A represents an averaged IC50 value <100 nM; B represents an averaged IC50 value from 100 to 1,000 nM; and C represents an average 1050 value above 1000 nM.

T1 sequence (P04629 440-796 limits assumed): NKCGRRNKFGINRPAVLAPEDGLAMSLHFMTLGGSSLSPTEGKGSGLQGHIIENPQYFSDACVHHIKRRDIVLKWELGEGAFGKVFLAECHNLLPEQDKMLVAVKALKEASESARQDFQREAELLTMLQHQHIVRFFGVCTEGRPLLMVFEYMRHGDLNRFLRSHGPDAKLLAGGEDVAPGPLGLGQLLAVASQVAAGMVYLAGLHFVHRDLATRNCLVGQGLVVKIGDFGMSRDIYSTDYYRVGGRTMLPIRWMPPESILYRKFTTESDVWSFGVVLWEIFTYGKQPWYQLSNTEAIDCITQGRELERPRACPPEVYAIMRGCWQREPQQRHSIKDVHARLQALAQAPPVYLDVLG

Compound	IC50 [nM]
COCc1ccc(OC(F)(F)F)c(CNC(=O)Nc2c(C)c(OCC3CCN(C)CC3)nn2-c2ccccc2)c1 [Example 93, 1-(5-(methoxymethyl)-2-(trifluoromethoxy)benzyl)-3-(4-methyl-3-((1-methylpiperidin-4-yl)methoxy)-1-phenyl-1H-pyrazol-5-yl)urea]	< 100
COCc1ccc(OC(F)(F)F)c(CNC(=O)Nc2c(C)c(-c3cc(C)c(=O)n(C)c3)nn2-c2ccccc2)c1 [Example 74, 1-(3-(1,5-dimethyl-6-oxo-1,6-dihydropyridin-3-yl)-4-methyl-1-phenyl-1H-pyrazol-5-yl)-3-(5-(methoxymethyl)-2-(trifluoromethoxy)benzyl)urea]	< 100
COCc1ccc(OC(F)F)c(CNC(=O)Nc2c(C)c(-c3cnn(C)c3)nn2-c2ccccc2)c1 [Example 20, 1-(2-(difluoromethoxy)-5-(methoxymethyl)benzyl)-3-(1′,4-dimethyl-1-phenyl-1H,1′H-[3,4′-bipyrazol]-5-yl)urea]	< 100
Cc1c(-c2cnn(C)c2)nn(-c2ccccc2)c1NC(=O)NCC1CCCc2ccccc21 (centres unmarked) [Example 44, 1-(1′,4-dimethyl-1-phenyl-1H,1′H-3,4′-bipyrazol-5-yl)-3-((1,2,3,4-tetrahydronaphthalen-1-yl)methyl)urea]	< 100
COCc1ccc(OC(F)F)c(CNC(=O)Nc2c(C)c(-c3ccc(C)nc3)nn2-c2ccccc2)c1 [Example 21, 1-(2-(difluoromethoxy)-5-(methoxymethyl)benzyl)-3-(4-methyl-3-(6-methylpyridin-3-yl)-1-phenyl-1H-pyrazol-5-yl)urea]	< 100
COCc1ccc(OC(F)(F)F)c(CNC(=O)Nc2c(C)c(-c3ccc(C)nc3)nn2-c2ccccc2)c1 [Example 23, 1-(5-(methoxymethyl)-2-(trifluoromethoxy)benzyl)-3-(4-methyl-3-(6-methylpyridin-3-yl)-1-phenyl-1H-pyrazol-5-yl)urea]	< 100
COCc1ccc(OC(F)(F)F)c(CNC(=O)Nc2c(C)c(OCC3(F)CCNC3)nn2-c2ccccc2)c1 (centres unmarked) [Example 73, 1-(3-((3-fluoropyrrolidin-3-yl)methoxy)-4-methyl-1-phenyl-1H-pyrazol-5-yl)-3-(5-(methoxymethyl)-2-(trifluoromethoxy)benzyl)urea]	< 100
COCc1ccc(OC(F)(F)F)c(CNC(=O)Nc2c(C)c(O[C@H]3CN(C)C[C@H]3F)nn2-c2ccccc2)c1 [Example 81, 1-(3-(((3S,4R)-4-fluoro-1-methylpyrrolidin-3-yl)oxy)-4-methyl-1-phenyl-1H-pyrazol-5-yl)-3-(5-(methoxymethyl)-2-(trifluoromethoxy)benzyl)urea]	< 100
COCc1ccc(OC(F)(F)F)c(CNC(=O)Nc2c(C)c(OC3CC4(CNC4)C3)nn2-c2ccccc2)c1 [Example 79, 1-(3-(2-azaspiro[3.3]heptan-6-yloxy)-4-methyl-1-phenyl-1H-pyrazol-5-yl)-3-(5-(methoxymethyl)-2-(trifluoromethoxy)benzyl)urea]	< 100
COCc1ccc(C2CC(F)(F)C2)c(CNC(=O)Nc2c(C)c(-c3cnn(C)c3)nn2-c2ccccc2)c1 [Example 38, 1-(2-(3,3-difluorocyclobutyl)-5-(methoxymethyl)benzyl)-3-(1′,4-dimethyl-1-phenyl-1H,1′H-[3,4′-bipyrazol]-5-yl)urea]	< 100
COCc1ccc(OC(F)(F)F)c(CNC(=O)Nc2c(C)c(OCc3nnc(C)o3)nn2-c2ccccc2)c1 [Example 61]	< 100
COCc1ccc(OC(F)(F)F)c(CNC(=O)Nc2c(C)c(OC[C@H](C)N)nn2-c2ccccc2)c1 [Example 96, (S)-1-(3-(2-aminopropoxy)-4-methyl-1-phenyl-1H-pyrazol-5-yl)-3-(5-(methoxymethyl)-2-(trifluoromethoxy)benzyl)urea]	< 100
COCc1ccc(OC(F)F)c(CNC(=O)Nc2c(C)c(OCC3CCNCC3)nn2-c2ccccc2)c1 [Example 105, 1-(2-(difluoromethoxy)-5-(methoxymethyl)benzyl)-3-(4-methyl-1-phenyl-3-(piperidin-4-ylmethoxy)-1H-pyrazol-5-yl)urea]	< 100
CNC(=O)c1nn(-c2ccccc2)c(NC(=O)NCc2cc(COC)ccc2OC(F)F)c1C [Example 56, 5-(3-(2-(difluoromethoxy)-5-(methoxymethyl)benzyl)ureido)-N,4-dimethyl-1-phenyl-1H-pyrazole-3-carboxamide]	< 100
COCc1ccc(C2CCC2)c(CNC(=O)Nc2c(C)c(OC[C@H](O)CO)nn2-c2ccccc2)c1 [Example 125, (R)-1-(2-cyclobutyl-5-(methoxymethyl)benzyl)-3-(3-(2,3-dihydroxypropoxy)-4-methyl-1-phenyl-1H-pyrazol-5-yl)urea]	< 100
COCc1ccc(C2CCC2)c(CNC(=O)Nc2c3c(nn2-c2ccccc2)CSC3)c1 [Example 120, 1-(2-cyclobutyl-5-(methoxymethyl)benzyl)-3-(2-phenyl-4,6-dihydro-2H-thieno[3,4-c]pyrazol-3-yl)urea]	< 100
COCc1ccc(OC(F)(F)F)c(CNC(=O)Nc2c(C)c(OC[C@@H]3CNCCO3)nn2-c2ccccc2)c1 [Example 112, (S)-1-(5-(methoxymethyl)-2-(trifluoromethoxy)benzyl)-3-(4-methyl-3-(morpholin-2-ylmethoxy)-1-phenyl-1H-pyrazol-5-yl)urea]	< 100
COCc1ccc(OC(F)F)c(CNC(=O)Nc2c(C)c(-c3cncc(OC)c3)nn2-c2ccccc2)c1 [Example 52, 1-(2-(difluoromethoxy)-5-(methoxymethyl)benzyl)-3-(3-(5-methoxypyridin-3-yl)-4-methyl-1-phenyl-1H-pyrazol-5-yl)urea]	< 100
COCc1ccc(C2CC2)c(CNC(=O)Nc2c(C)c(-c3ccc(=O)n(C)c3)nn2-c2ccccc2)c1 [Example 4, 1-(2-cyclopropyl-5-(methoxymethyl)benzyl)-3-(4-methyl-3-(1-methyl-6-oxo-1,6-dihydropyridin-3-yl)-1-phenyl-1H-pyrazol-5-yl)urea]	< 100
COCc1ccc(OC(F)(F)F)c(CNC(=O)Nc2c(C)c(OC3CC4(CCN4C)C3)nn2-c2ccccc2)c1 (centres unmarked) [Example 94, 1-(5-(methoxymethyl)-2-(trifluoromethoxy)benzyl)-3-(4-methyl-3-((1-methyl-1-azaspiro[3.3]heptan-6-yl)oxy)-1-phenyl-1H-pyrazol-5-yl)urea 2,2,2-trifluoroacetate]	< 100
COCc1ccc(OC(F)(F)F)c(CNC(=O)Nc2c(C)c(Oc3ccccc3)nn2-c2ccccc2)c1 [Example 77, 1-(5-(methoxymethyl)-2-(trifluoromethoxy)benzyl)-3-(4-methyl-3-phenoxy-1-phenyl-1H-pyrazol-5-yl)urea]	100 to 1000
COCc1ccc(OC(F)(F)F)c(CNC(=O)Nc2c(C)c(OC[C@H](O)CO)nn2-c2ccccc2)c1 [Example 65, (R)-1-(3-(2,3-dihydroxypropoxy)-4-methyl-1-phenyl-1H-pyrazol-5-yl)-3-(5-(methoxymethyl)-2-(trifluoromethoxy)benzyl)urea]	< 100
COCc1ccc(OC(F)(F)F)c(CNC(=O)Nc2c(C)c(O[C@H]3CNC[C@H]3F)nn2-c2ccccc2)c1 [Example 80, 1-(3-(((3S,4R)-4-fluoropyrrolidin-3-yl)oxy)-4-methyl-1-phenyl-1H-pyrazol-5-yl)-3-(5-(methoxymethyl)-2-(trifluoromethoxy)benzyl)urea]	< 100
Cc1c(-c2cnn(C)c2)nn(-c2ccccc2)c1NC(=O)NCc1ccncc1C1CCC1 [Example 37, 1-((3-cyclobutylpyridin-4-yl)methyl)-3-(1′,4-dimethyl-1-phenyl-1H,1′H-[3,4′-bipyrazol]-5-yl)ureaea]	100 to 1000
COCc1ccc(C(C)(C)C)c(CNC(=O)Nc2c(C)c(-c3cnn(C)c3)nn2-c2ccccc2)c1 [Example 35, 1-(2-(tert-butyl)-5-(methoxymethyl)benzyl)-3-(1′,4-dimethyl-1-phenyl-1H,1′H-[3,4′-bipyrazol]-5-yl)urea]	< 100
COCc1ccc(OC(F)(F)F)c(CNC(=O)Nc2c(C)c(O[C@@H]3CCN(C)C3)nn2-c2ccccc2)c1 [Example 82, (R)-1-(5-(methoxymethyl)-2-(trifluoromethoxy)benzyl)-3-(4-methyl-3-((1-methylpyrrolidin-3-yl)oxy)-1-phenyl-1H-pyrazol-5-yl)urea]	< 100
CCSc1ccc(C2CCC2)c(CNC(=O)Nc2c(C)c(-c3cnn(C)c3)nn2-c2ccccc2)c1 [Example 128, 1-(2-cyclobutyl-5-(ethylthio)benzyl)-3-(1′,4-dimethyl-1-phenyl-1H,1′H-[3,4′-bipyrazol]-5-yl)urea]	100 to 1000
COCc1ccc(C2CCCC2)c(CNC(=O)Nc2c(C)c(-c3cnc(C)nc3)nn2-c2ccccc2)c1 [Example 12, 1-(2-cyclopentyl-5-(methoxymethyl)benzyl)-3-(4-methyl-3-(2-methylpyrimidin-5-yl)-1-phenyl-1H-pyrazol-5-yl)urea]	< 100
COCc1ccc(OCC(F)(F)F)c(CNC(=O)Nc2c(C)c(-c3cnc(OC)nc3)nn2-c2ccccc2)c1 [Example 69, 1-(5-(methoxymethyl)-2-(2,2,2-trifluoroethoxy)benzyl)-3-(3-(2-methoxypyrimidin-5-yl)-4-methyl-1-phenyl-1H-pyrazol-5-yl)urea]	< 100
